# Patent US20250304623A1, “PEPTIDES FOR INTRACELLULAR DELIVERY” (UNIVERSIDADE DE SANTIAGO DE COMPOSTELA, priority 2022, published 2025)
# Key:
# Assay type in all cases: cell-based
# [1] = test system: A549 cells; assay: EGFP mRNA delivery, robotic library screening, A549
# Protocol: (§1) Cells were seeded in a 96 well plate the day before the experiment at a concentration of 50,000 cell/mL (100 μL/w) in DMEM+10% FBS+1% Gln-Abt. For robotic library screening, the delivery of EGFP-mRNA (from TriLink, fully substituted with 5-methoxyuridine, capped and polyadenylated; TriLink, CleanCap® EGFP mRNA (5moU), ref. L-7201) in six different cell lines was performed. Amphiphilic molecule stock solutions were prepared in DMSO as described above and diluted in DMEM to afford a range of concentrations. The solutions of EGFP-mRNA/amphiphilic molecule complexes were freshly prepared prior to the transfection experiments. 35 μL of the corresponding amphiphile were added to 10 μL of a solution of EGFP-mRNA at 10 ng/μL in DMEM. The mixture was shaken for 30 min at room temperature before the addition to the cells. The cell medium was aspirated, and cells were washed with PBS twice. Cells were covered with 39 μL of DMEM and 11 μL of the complex's solution were added to the cells and incubated for 4 h (final concentration of peptide=2.5, 5 and 10 μM; final concentration of EGFP-mRNA=25 ng/well). After the incubation, the medium was replaced by 100 μL of fresh DMEM supplemented with 10% FBS. The total EGFP fluorescence was quantified after 72 h in a well plate reader. Amphiphile transfection efficiency was compared and normalized to Lipofectamine® MessengerMax efficiency (value of 1 in Tables 1-5 and 7; double underlined numbers). All experiments were done in triplicate.
# (§2) Tables 1-7: RLuc (pDNA) or EGFP (mRNA) expression levels were normalized to Lipofectamine reagents (value=1) and expressed as fold-times signal increase. In the case of siRNA, the siRNA treated cells fluorescence was compared with siMOCK control fluorescence, while Cas9-RNP mediated knockout was measured against the fluorescence of untreated cells. In both siRNA and Cas9-RNP, values are expressed as % fluorescence reduction. Amphiphile concentration was 5 μM in all cases. All experiments were performed in triplicate.
# (§3) Tables 14-19 show the mean (triplicates) fluorescence intensity measured after the transfection of EGFP mRNA by different amphiphiles at different concentrations in a variety of cell lines. Background fluorescence values, accounted by untreated control cells, were subtracted for processing.
# [2] = test system: ARPE19 cells; assay: EGFP mRNA delivery, robotic library screening, ARPE19
# Protocol: as §1, §2, §3
# [3] = test system: HCT116 cells; assay: EGFP mRNA delivery, robotic library screening, HCT116; details: Petroselinyl
# Protocol: as §1, §2, §3
# [4] = test system: Hek293 cells; assay: EGFP mRNA delivery, robotic library screening, Hek293
# Protocol: as §1, §2, §3
# [5] = test system: ARPE19 cells expressing EGFP; assay: EGFP-targeting siRNA delivery (GFP silencing vs siMOCK), ARPE19
# Protocol: To generate an EGFP expressing HeLa cell line, HeLa cells were transfected with EGFP pDNA (pEGFP-C1, Clontech) and stable transfectants were selected with 400 μg/mL of G-418 (Millipore). Green clones were selected by epifluorescence microscopy and tested for EGFP expression stability through several passages. […] All other EGFP-expressing cell lines were obtained in a similar way from parent non-EGFP-expressing cell lines.
# Cells expressing EGFP were seeded in a 96 well plate the day before the experiment at a concentration of 50,000 cell/mL (100 μL/w) in DMEM+10% FBS+1% Gln-Abt. For robotic library screening, the delivery of an EGFP-targeting siRNA (EGFP: enhanced green fluorescent protein, Ambion® Silencer® GFP Positive Control siRNA (siGFP) (AM4626)) in six different cell lines expressing EGFP was performed. […] The mixture was shaken for 30 min at room temperature (rt) before the addition to the cells. The cell medium was aspirated, and cells were washed twice with PBS. Finally, 50 μL of the solution of siRNA/amphiphile complexes were added to the cells and incubated for 4 h. After transfection, the medium was replaced by 100 μL of fresh DMEM supplemented with 10% FBS. The fluorescence knockdown was quantified after 72 h in a plate reader, by comparison with cells transfected with a non-targeting siRNA control (siMOCK, Silencer™ Negative Control No. 1 siRNA (siMOCK) (AM4611)). EGFP knockdown was compared with Lipofectamine® RNAiMAX silencing efficiency (30-60% depending on cell line, defined with a numeric value in the below tables). All experiments were done in triplicate.
# as §2
# Tables 20-25 show the mean (triplicates) percentage of GFP-silencing, accounted by fluorescence intensity decrease relative to a non-targeting siRNA (siMOCK) control, measured after the transfection of siRNA by different amphiphiles at different concentrations in a variety of cell lines. Background values, accounted by untreated control cells, were subtracted for processing.
substance,measurement,setting,value
"Ac-RHLK*RHK*RRLK*RH-NH2 (Ac-RHLKRHKRRLKRH-NH2; not fully specified (residues 4, 7, 11); printed as Ac-RHLK*RHK*RRLK*RH-NH2; also: linker on K* not given here) [13(3His)]",mean fluorescence intensity (EGFP mRNA),"[1]; Dodecanal, 2.5 μM",622
same,mean fluorescence intensity (EGFP mRNA),"[1]; Dodecanal, 5 μM",945
same,mean fluorescence intensity (EGFP mRNA),"[1]; Dodecanal, 10 μM",453
same,mean fluorescence intensity (EGFP mRNA),"[1]; Myristoleyl, 2.5 μM",1558
same,mean fluorescence intensity (EGFP mRNA),"[1]; Myristoleyl, 5 μM",1386
same,mean fluorescence intensity (EGFP mRNA),"[1]; Myristoleyl, 10 μM",696
same,mean fluorescence intensity (EGFP mRNA),"[1]; Oleyl, 2.5 μM",1063
same,mean fluorescence intensity (EGFP mRNA),"[1]; Oleyl, 5 μM",1233
same,mean fluorescence intensity (EGFP mRNA),"[1]; Oleyl, 10 μM",109
same,mean fluorescence intensity (EGFP mRNA),"[1]; Palmitoleyl, 2.5 μM",1138
same,mean fluorescence intensity (EGFP mRNA),"[1]; Palmitoleyl, 10 μM",65
same,mean fluorescence intensity (EGFP mRNA),"[1]; Petroselinyl, 2.5 μM",2598
same,mean fluorescence intensity (EGFP mRNA),"[1]; Petroselinyl, 5 μM",1675
same,mean fluorescence intensity (EGFP mRNA),"[1]; Petroselinyl, 10 μM",1017
same,mean fluorescence intensity (EGFP mRNA),"[2]; Myristoleyl, 5 μM",393
same,mean fluorescence intensity (EGFP mRNA),"[2]; Petroselinyl, 2.5 μM",596
same,mean fluorescence intensity (EGFP mRNA),"[2]; Petroselinyl, 5 μM",384
same,mean fluorescence intensity (EGFP mRNA),"[2]; Petroselinyl, 10 μM",508
same,mean fluorescence intensity (EGFP mRNA),[3]; 2.5 μM,563
same,mean fluorescence intensity (EGFP mRNA),[3]; 5 μM,238
same,mean fluorescence intensity (EGFP mRNA),[3]; 10 μM,541
same,mean fluorescence intensity (EGFP mRNA),"[4]; Dodecanal, 5 μM",1878
same,mean fluorescence intensity (EGFP mRNA),"[4]; Dodecanal, 10 μM",1687
same,mean fluorescence intensity (EGFP mRNA),"[4]; Myristoleyl, 2.5 μM",2039
same,mean fluorescence intensity (EGFP mRNA),"[4]; Myristoleyl, 5 μM",1952
same,mean fluorescence intensity (EGFP mRNA),"[4]; Myristoleyl, 10 μM",3636
same,mean fluorescence intensity (EGFP mRNA),"[4]; Oleyl, 2.5 μM",2611
same,mean fluorescence intensity (EGFP mRNA),"[4]; Oleyl, 5 μM",735
same,mean fluorescence intensity (EGFP mRNA),"[4]; Oleyl, 10 μM",1303
same,mean fluorescence intensity (EGFP mRNA),"[4]; Petroselinyl, 2.5 μM",3629
same,mean fluorescence intensity (EGFP mRNA),"[4]; Petroselinyl, 5 μM",2394
same,mean fluorescence intensity (EGFP mRNA),"[4]; Petroselinyl, 10 μM",2964
same,percentage of GFP-silencing relative to siMOCK,"[5]; Dodecanal, 5 μM",16%
same,percentage of GFP-silencing relative to siMOCK,"[5]; Dodecanal, 15 μM",22%
same,percentage of GFP-silencing relative to siMOCK,"[5]; Myristoleyl, 10 μM",42%
same,percentage of GFP-silencing relative to siMOCK,"[5]; Myristoleyl, 15 μM",30%
same,percentage of GFP-silencing relative to siMOCK,"[5]; Oleyl, 10 μM",43%
same,percentage of GFP-silencing relative to siMOCK,"[5]; Oleyl, 15 μM",41%
same,percentage of GFP-silencing relative to siMOCK,"[5]; Palmitoleyl, 10 μM",49%
same,percentage of GFP-silencing relative to siMOCK,"[5]; Palmitoleyl, 15 μM",25%
same,percentage of GFP-silencing relative to siMOCK,"[5]; Petroselinyl, 5 μM",13%
same,percentage of GFP-silencing relative to siMOCK,"[5]; Petroselinyl, 10 μM",56%
same,percentage of GFP-silencing relative to siMOCK,"[5]; Petroselinyl, 15 μM",30%
